Experiment [1] has as its system HCT116 cells. The experiment can be described thus: Sulforhodamine B (SRB) cell viability assay, HCT116. The experiment is classed as cell-based. To be noted: Homo sapiens, HCT-116, CRC cell line, 48 h, read-out: IC50 (μM) ± SD, HCT116. On the procedure: (§1) The cells were allowed to adhere overnight, from 12 h to 18 h, and then treated with increasing concentrations of each compound, C9, A36, and A42 (0.125 μM, 0.25 μM, 0.5 μM, 1 μM, 2.5 μM, and 5 μM), in their respective culture mediums for 48 h. In addition to a negative control that consisted only of cells and growth medium, a negative control containing the highest concentration of the solvent in which the compound was dissolved (DMSO 0.1%) was also used. The SRB assay was performed according to Marques et al.. The IC50 values were obtained using GraphPad Prism version 8.2.1 through the application of a sigmoidal dose–response nonlinear regression, after logarithmic transformation. The selectivity index was determined by dividing the IC50 value of the non-neoplastic BJ-5ta cell line by the IC50 value of the cancer cell lines (IC50 BJ-5ta/IC50 cancer cell line); furthermore, for the CRC model, a second selectivity index was also determined using the non-neoplastic NCM460 cell line (IC50 NCM460/IC50 CRC cell line). According to the results of the selectivity index, the cell line with the highest selectivity value for each of the models, CRC and breast, was selected for subsequent characterization.
Three CRC-derived cell lines, SW480 (KRAS^G12V), HCT116 (KRAS^G13D), and RKO (BRAF^V600E), harboring somatic mutations on KRAS or BRAF, and two breast-cancer-derived cell lines, MDA-MB-231 (basal like) and MCF7 (luminal A subtype), together with two non-neoplastic cell lines, NCM460 (normal colon mucosal epithelial cell line) and BJ-5ta (normal foreskin fibroblast cell line), were used to study the activity and selectivity of the three new benzo[a]phenoxazine compounds, C9, A36, and A42. All cell lines were treated with a range of drug concentrations (0.125 μM, 0.25 μM, 0.5 μM, 1 μM, 2.5 μM, and 5 μM) for 48 h, and the effect on cell viability was assessed using a sulforhodamine B assay (SRB) (Figure 2). […] In addition, the selectivity index was determined using the BJ-5ta cell line as a reference, as well as the NCM460 cell line for the CRC model (Table 1).

Experiment [2] has as its system MDA-MB-231 cells. The experiment can be described thus: Sulforhodamine B (SRB) cell viability assay, MDA-MB-231. It counts as cell-based, human. How it is done: as §1
Three CRC-derived cell lines, SW480 (KRAS^G12V), HCT116 (KRAS^G13D), and RKO (BRAF^V600E), harboring somatic mutations on KRAS or BRAF, and two breast-cancer-derived cell lines, MDA-MB-231 (basal like) and MCF7 (luminal A subtype), together with two non-neoplastic cell lines, NCM460 (normal colon mucosal epithelial cell line) and BJ-5ta (normal foreskin fibroblast cell line), were used to study the activity and selectivity of the three new benzo[a]phenoxazine compounds, C9, A36, and A42. All cell lines were treated with a range of drug concentrations (0.125 μM, 0.25 μM, 0.5 μM, 1 μM, 2.5 μM, and 5 μM) for 48 h, and the effect on cell viability was assessed using a sulforhodamine B assay (SRB) (Figure 2). The results were used to determine the IC50 value of each compound for all the cell lines (Table 1). In addition, the selectivity index was determined using the BJ-5ta cell line as a reference, as well as the NCM460 cell line for the CRC model (Table 1).

The subject of experiment [3] is RKO cells. The experiment can be described thus: Lysosomal membrane permeabilization (acridine orange, flow cytometry), RKO. To be noted: 4 × IC50, 48 h. The experiment is classed as cell-based, human. On the procedure: RKO and MCF7 lysosomal membrane permeabilization (LMP) was evaluated through flow cytometry using the Acridine Orange (A.O) probe. RKO and MCF7 cells were seeded in 12-well plates at a density of 1 × 10^5 cells/mL. After 24 h, the cells were treated with the compounds C9, A36, and A42 at 2 × IC50 and 4 × IC50 concentrations or 0.1% DMSO (vehicle). As a control, untreated cells were employed. Following a 48 h period, the adherent and floating cells were collected and subjected to a 15-min dark incubation period at 37 °C with 1 μM A.O. After that, the samples were examined by flow cytometry using the PC5.5 channel.
Following the information obtained with the lead compound and considering the microscopic observations made with these new compounds, we next investigated whether their toxicity was also associated with lysosome targeting. To this end, we evaluated the induction of lysosomal membrane permeabilization (LMP) by flow cytometry, using acridine orange (AO) as probe. This probe allows for an assessment of permeabilization, as its fluorescence decreases upon the release of lysosomal protons. […] The cells that presented decreased AO fluorescence were considered to have permeabilized lysosomes.
(A flow cytometer gives signals particle by particle.)

The subject of experiment [4] is RKO cells. The experiment can be described thus: Intracellular pH evaluation (BCECF-AM, flow cytometry), RKO. It counts as cell-based, human. The settings on record: 2 × IC50 and 4 × IC50, 48 h. How it is done:
(§2) Evaluations of the intracellular pHs (pHi) of the RKO and MCF7 cells were performed through a flow cytometry optimized protocol using the pH-sensitive probe BCECF-AM. RKO and MCF7 cells were seeded in 12-well plates at a density of 1 × 10^5 cells/mL. After 24 h, the cells were treated with the compounds C9, A36, and A42 at 2 × IC50 and 4 × IC50 concentrations or 0.1% DMSO (vehicle). As a control, untreated cells were used. Attached and floating cells were collected, washed, and then resuspended in Hank’s balanced salt solution (HBSS) after a 48 h treatment period. After that, the cells were stained with 1 μM of BCECF-AM for 30 min at 37 °C. The samples were analyzed by flow cytometry. The FITC-A and PE-A channels were used to detect the fluorescence mean of BCECF-AM.
(§3) To further support LMP’s role in cell death induction, we investigated the effects of the compounds on intracellular pH (pHi), as LMP induction is associated with an increase in cytosolic proton levels and, as a result, a reduction in intracellular pH [67, 68, 69]. We used the dual-emission ratiometric pH-sensitive probe BCECF-AM, which emits fluorescence based on pHi. The result of acidification was shown by a decrease in the fluorescence ratio between BCECF-AM green (FITC-FL1) and red fluorescence (PE-FL2) (FL1/FL2). […]

The subject of experiment [5] is MCF7 cells. The experiment can be described thus: Intracellular pH evaluation (BCECF-AM, flow cytometry), MCF7. The experiment is classed as cell-based, human. To be noted: MCF7, 2 × IC50 and 4 × IC50, 48 h. On the procedure: as §2, §3
In experiment [6] the test system is RKO cells. The experiment can be described thus: ROS levels (DHE, flow cytometry), RKO. The experiment is classed as cell-based, human. The settings on record: 2 × IC50 and 4 × IC50, 48 h. How it is done:
The RKO and MCF7 ROS levels were evaluated through flow cytometry using the dihydroethidium (DHE) probe. RKO and MCF7 cells were seeded in 12-well plates at a density of 1 × 10^5 cells/mL. After 24 h, the cells were treated with the compounds C9, A36, and A42 at 2 × IC50 and 4 × IC50 concentrations or 0.1% DMSO (vehicle). As a control, untreated cells were used. The cells were collected after 48 h of treatment, washed with PBS 1×, and stained for 30 min at 37 °C in the dark using 0.5 μM DHE. The DHE mean fluorescence intensity was analyzed by flow cytometry using the PE-A channel.
Since ROS generation is reported to precede LMP and cell death, and in view of reports showing that some compounds of this family increase intracellular ROS levels under certain circumstances, we also investigated whether C9, A36, and A42 had any effects in this regard.

A word on the IC50: it is the midpoint of a concentration-inhibition curve. `CCCNc1cc2oc3cc(=NCC)c(C)cc-3nc2c2ccccc12` [C9]: the IC50 turned out to be 1.64 ± 0.09 µM in experiment [1] and 1.19 ± 0.05 µM in experiment [2] (Homo sapiens, MDA-MB-231, breast cancer cell line, 48 h, SRB, read-out: IC50 (μM) ± SD, MDA-MB-231). The “Selectivity Index Cell Line IC50/BJ-5ta IC50” value in experiment [2] (MDA-MB-231 versus BJ-5ta) came out at 2.14. Moreover, the “Percentage of cells with LMP (permeabilized lysosomes)” value in experiment [3] is recorded as “more than 80%”. The “Intracellular acidification (BCECF-AM FL1/FL2 ratio)” value in experiment [4] and in experiment [5] was “most pronounced effect” in each case. In addition, the “ROS levels (fluorescence mean of DHE)” value in experiment [6] was “higher intensity”.

For the origin of these results see paper PMC11352945, “Anticancer Activity of Benzo[a]phenoxazine Compounds Promoting Lysosomal Dysfunction” (Cells, 2024).
